The structures appear in SMILES notation. Where two headings read alike, the source gives them in different places.

Common to all, as to type: in vivo
Experiment [1] deals with ragweed (common ragweed, Ambrosia elatior). Put plainly: Test A preemergence. The following applies: Ambrosia artemisiifolia, pre-emergence, 240 h; for pest or weed control at 500 g/ha: 500 g ai/ha, preemergence; for pest or weed control at 125 g/ha: Preemergence, 125 g ai/ha. A digest of the protocol: (§1)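 Treatment is preemergence as a directed soil spray after planting, or postemergence at the one- to two-leaf stage, with test chemical in a non-phytotoxic solvent mixture plus surfactant. Plants stay in the greenhouse about 10 d before visual injury scoring on a 0 to 100 scale versus untreated controls.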

Experiment [2] deals with giant foxtail (Setaria faberii). As to the kind of experiment: Test A preemergence. The following applies: Setaria faberi, pre-emergence, 240 h; for pest or weed control at 500 g/ha: 500 g ai/ha, preemergence; for pest or weed control at 125 g/ha: Preemergence, 125 g ai/ha. A digest of the protocol: as §1
Experiment [3] has as its system pigweed (Amaranthus retroflexus). As to the kind of experiment: Test A preemergence. The following applies: Amaranthus retroflexus, pre-emergence, 240 h; for pest or weed control at 500 g/ha: 500 g ai/ha, preemergence; for pest or weed control at 125 g/ha: Preemergence, 125 g ai/ha.
For experiment [4], the system named is barnyardgrass (Echinochloa crus-galli). As to the kind of experiment: Test A preemergence. The conditions noted are these: Echinochloa crus-galli, pre-emergence, 240 h; for pest or weed control at 500 g/ha: 500 g ai/ha, preemergence; for pest or weed control at 125 g/ha: Preemergence, 125 g ai/ha. A digest of the protocol: as §1
The subject of experiment [5] is Kochia (Kochia scoparia). As to the kind of experiment: Test A preemergence. The following applies: Bassia scoparia, pre-emergence, 240 h; for pest or weed control at 500 g/ha: 500 g ai/ha, preemergence; for pest or weed control at 125 g/ha: Preemergence, 125 g ai/ha. The method, boiled down:
as §1

For experiment [6], the system named is ryegrass, Italian (Italian ryegrass, Lolium multiflorum). As to the kind of experiment: Test A preemergence. The conditions noted are these: Lolium multiflorum, pre-emergence, 240 h, 0 to 100 scale (0 no effect, 100 complete control), read-out: Plant response rating, Ryegrass, Italian; for pest or weed control at 125 g/ha: Preemergence, 125 g ai/ha. The method, boiled down:
as §1

The subject of experiment [7] is rice (Oryra sativa). As to the kind of experiment: Test B flooded paddy test. The conditions noted are these: Oryza sativa, Flood, 250 g ai/ha. The method, boiled down: (§2)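 Rating scale 0–100 (visual, vs untreated controls) after a 13–15 d greenhouse period; application to the flood layer, 3 cm above soil and maintained; plants at 2-leaf stage when treated.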
For experiment [8], the system named is sedge, umbrella (small-flower umbrella sedge, Cyperus difformis). Put plainly: Test B flooded paddy test. The following applies: Cyperus difformis, 360 h, Flood, 250 g ai/ha; visually evaluated after 13 to 15 d; read-out: Plant response rating, Sedge, Umbrella (0 to 100 scale where 0 is no effect and 100 is complete control). The method, boiled down: as §2
Experiment [9] concerns barnyardgrass (Echinochloa crus-galli). Put plainly: Test B flooded paddy test. The conditions noted are these: Echinochloa crus-galli, Flood, 250 g ai/ha. The method, boiled down: as §2
In experiment [10] the test system is ducksalad (Heteranthera limosa). As to the kind of experiment: Test B flooded paddy test. The following applies: Heteranthera limosa, Flood, 250 g ai/ha. A digest of the protocol:
as §2

Experiment [11] relates to giant foxtail (Setaria faberii). Put plainly: Test A postemergence. The conditions noted are these: Setaria faberi, post-emergence, 240 h, Postemergence; for pest or weed control at 125 g/ha: 125 g ai/ha; for pest or weed control at 500 g/ha: 500 g ai/ha, visual injury, 0 to 100 scale (0 no effect, 100 complete control), approx. 10 d. A digest of the protocol: as §1
Experiment [12] relates to pigweed (Amaranthus retroflexus). Put plainly: Test A postemergence. The conditions noted are these: Amaranthus retroflexus, post-emergence, 240 h, Postemergence; for pest or weed control at 125 g/ha: 125 g ai/ha; for pest or weed control at 500 g/ha: 500 g ai/ha, visual injury, 0 to 100 scale (0 no effect, 100 complete control), approx. 10 d. A digest of the protocol:
as §1

Experiment [13] concerns barnyardgrass (Echinochloa crus-galli). Put plainly: Test A postemergence. The conditions noted are these: Echinochloa crus-galli, post-emergence, 240 h, Postemergence; for pest or weed control at 125 g/ha: 125 g ai/ha; for pest or weed control at 500 g/ha: 500 g ai/ha, visual injury, 0 to 100 scale (0 no effect, 100 complete control), approx. 10 d. A digest of the protocol: as §1

The subject of experiment [14] is ryegrass, Italian (Italian ryegrass, Lolium multiflorum). As to the kind of experiment: Test A postemergence. The conditions noted are these: Lolium multiflorum, post-emergence, 240 h, Postemergence; for pest or weed control at 125 g/ha: 125 g ai/ha; for pest or weed control at 500 g/ha: 500 g ai/ha, visual injury, 0 to 100 scale (0 no effect, 100 complete control), approx. 10 d. A digest of the protocol:
as §1

The mark [15] stands for this setting: 0 to 100 scale (0 no effect, 100 complete control), read-out: Plant response rating, Ragweed.
Setting [16] is: 0 to 100 scale (0 no effect, 100 complete control), read-out: Plant response rating, Foxtail, Giant.
Setting [17] is: 0 to 100 scale (0 no effect, 100 complete control), read-out: Plant response rating, Pigweed.
The mark [18] stands for this setting: 0 to 100 scale (0 no effect, 100 complete control), read-out: Plant response rating, Barnyardgrass.
Setting [19] is: 0 to 100 scale (0 no effect, 100 complete control), read-out: Plant response rating, Kochia.
Setting [20] is: read-out: Plant response rating, Foxtail, Giant.
The mark [21] stands for this setting: read-out: Plant response rating, Pigweed.
[22] abbreviates: read-out: Plant response rating, Barnyardgrass.
[23] abbreviates: read-out: Plant response rating, Ryegrass, Italian.
[24] abbreviates: 0 to 100 scale where 0 is no effect and 100 is complete control, read-out: Barnyardgrass plant response rating.

For `CN1C[C@H](c2cccc(C(F)(F)F)c2)[C@@H](C(=O)Nc2ccc(F)c(F)c2F)C1=O` [Compound 1389], the pest or weed control at 500 g/ha was determined as 30% in experiment [1] (setting [15]); 100% in experiment [2] (setting [16]); 80% in experiment [3] (setting [17]); 100% in experiment [4] (setting [18]); 90% in experiment [5] (setting [19]); 90% in experiment [6] (500 g ai/ha, preemergence). For the same compound, the pest or weed control at 500 g/ha in experiment [11] (setting [20]) amounted to 80%; in [12] (setting [21]), 70%; in experiment [13] (setting [22]) it was 100%; in experiment [14] (setting [23]), 80%. Moreover, the pest or weed control at 125 g/ha is 0% in experiment [1] (setting [15]); 100% in [2] (setting [16]); 70% in [3] (setting [17]); 100% in experiment [4] (setting [18]); 70% in [5] (setting [19]); 80% in experiment [6]. For the same compound, the pest or weed control at 125 g/ha in experiment [11] (visual injury after approx. 10 d, 0 to 100 scale, 0 no effect, 100 complete control, read-out: Plant response rating, Foxtail, Giant) is 80%; in experiment [12] (visual injury after approx. 10 d, 0 to 100 scale, 0 no effect, 100 complete control, read-out: Plant response rating, Pigweed) it was 30%; in [13] (visual injury after approx. 10 d, 0 to 100 scale, 0 no effect, 100 complete control, read-out: Plant response rating, Barnyardgrass) it was 90%; in experiment [14] (visual injury after approx. 10 d, 0 to 100 scale, 0 no effect, 100 complete control, read-out: Plant response rating, Ryegrass, Italian), 70%. Besides, the pest or weed control at 250 g/ha is 15% in experiment [7] (360 h, visually evaluated after 13 to 15 d, read-out: Plant response rating, Rice (0 to 100 scale where 0 is no effect and 100 is complete control)); 0% in experiment [8]; 60% in experiment [9] (360 h, visually evaluated after 13 to 15 d, read-out: Plant response rating, Barnyardgrass (0 to 100 scale where 0 is no effect and 100 is complete control)); 100% in experiment [10] (360 h, visually evaluated after 13 to 15 d, read-out: Plant response rating, Ducksalad (0 to 100 scale where 0 is no effect and 100 is complete control)).
As to `CN1C[C@H](c2cccc(C(C)(F)F)c2)[C@@H](C(=O)Nc2ccccc2S(C)(=O)=O)C1=O` [Compound 1318], the pest or weed control at 500 g/ha in [1] (0 to 100 scale where 0 is no effect and 100 is complete control, read-out: Ragweed plant response rating) came out at 90%; in experiment [2] (0 to 100 scale where 0 is no effect and 100 is complete control, read-out: Foxtail, Giant plant response rating), 90%; in experiment [3] (0 to 100 scale where 0 is no effect and 100 is complete control, read-out: Pigweed plant response rating), 80%; in [4] (setting [24]), 90%; in [5] (0 to 100 scale where 0 is no effect and 100 is complete control, read-out: Kochia plant response rating), 80%; in [11] (setting [20]) it was 90%. Besides, the pest or weed control at 500 g/ha in experiment [12] (setting [21]) came to 40%; in experiment [13] (setting [22]), 90%; in experiment [14] (setting [23]), 40%. In addition, the pest or weed control at 125 g/ha in experiment [1] (setting [15]) worked out at 0%; in experiment [2] (setting [16]) it was 90%; in experiment [3] (setting [17]), 70%; in [4] (setting [18]), 90%; in experiment [5] (setting [19]), 70%; in experiment [6] it was 40%. The pest or weed control at 125 g/ha is 90% in experiment [11] (visual rating about 10 d after treatment, read-out: Foxtail, Giant plant response rating (0 to 100 scale)); 30% in experiment [12] (visual rating about 10 d after treatment, read-out: Pigweed plant response rating (0 to 100 scale)); 80% in experiment [13] (visual rating about 10 d after treatment, read-out: Barnyardgrass plant response rating (0 to 100 scale, 0 no effect, 100 complete control)); 20% in experiment [14] (visual rating about 10 d after treatment, read-out: Ryegrass, Italian plant response rating (0 to 100 scale)). Besides, the pest or weed control at 250 g/ha in experiment [7] (0 to 100 scale where 0 is no effect and 100 is complete control, read-out: Rice plant response rating) was found to be 0%; in experiment [8], 0%; in experiment [9] (setting [24]) it was 65%; in [10] (0 to 100 scale where 0 is no effect and 100 is complete control, read-out: Ducksalad plant response rating), 85%.

For the origin of these results see patent publication US12077503B2, “Substituted cyclic amides and their use as herbicides” (FMC CORPORATION, priority 2015, dated 2024).
